Laboratory results: PubChem BioAssay (NCI)
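Test compounds were applied to cells in 96-well plates for 48 hours at 5 doses. GI50 = concentration required for 50% inhibition of growth. TGI denotes the concentration required for complete inhibition of growth.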

How the values were obtained:
Assay in all cases: growth of human tumour cells (NCI), 48 h
M14 melanoma = test system: M14 melanoma
OVCAR-5 ovarian = test system: OVCAR-5 ovarian
SK-OV-3 ovarian = test system: SK-OV-3 ovarian
SNB-19 CNS = test system: SNB-19 CNS
SK-MEL-2 melanoma = test system: SK-MEL-2 melanoma
SK-MEL-28 melanoma = test system: SK-MEL-28 melanoma
786-0 renal = test system: 786-0 renal
HOP-62 NSCLC = test system: HOP-62 NSCLC
MDA-MB-435 = test system: MDA-MB-435
BT-549 breast = test system: BT-549 breast

SMILES | TGI (M14 melanoma) | TGI (OVCAR-5 ovarian) | TGI (SK-OV-3 ovarian) | TGI (SNB-19 CNS) | TGI (SK-MEL-2 melanoma) | TGI (SK-MEL-28 melanoma) | TGI (786-0 renal) | TGI (HOP-62 NSCLC) | GI50 (M14 melanoma) | GI50 (OVCAR-5 ovarian) | GI50 (MDA-MB-435) | TGI (MDA-MB-435) | GI50 (SK-OV-3 ovarian) | GI50 (SNB-19 CNS) | GI50 (SK-MEL-28 melanoma) | GI50 (786-0 renal) | GI50 (HOP-62 NSCLC) | GI50 (BT-549 breast) | TGI (BT-549 breast) | GI50 (SK-MEL-2 melanoma)
O=C[C@]12CC=C3OC4OC5(CCCCC5)OC4[C@H]3[C@H]1C(=O)C=CC2=O (stereo partly drawn) | 38.7 µM | > 100 µM | > 100 µM | > 100 µM | > 100 µM | 96.3 µM | 21.5 µM | > 100 µM | – | – | – | – | – | – | – | – | – | – | – | –
N#CC(C#N)=Cc1ccc(C(O)P(=O)(O)O)cc1 (stereo not drawn) | > 100 µM | > 100 µM | > 100 µM | > 100 µM | > 100 µM | > 100 µM | > 100 µM | > 100 µM | – | – | – | – | – | – | – | – | – | – | – | –
CCCCOC(=O)/C=C\C(=O)NC(N)=O | 36.6 µM | 81.7 µM | > 100 µM | > 100 µM | – | 42.5 µM | 53.1 µM | > 100 µM | 17.2 µM | 25.6 µM | 24.7 µM | 85 µM | 44.9 µM | 41.2 µM | 19.1 µM | 20.1 µM | 32.5 µM | – | – | –
COc1ccc(N=N/C(=N\NC(=O)c2cc(Br)ccc2O)c2ccc(N(CCC#N)CCC#N)cc2OC)cc1 | > 150 µg/mL | > 150 µg/mL | > 150 µg/mL | > 150 µg/mL | > 150 µg/mL | > 150 µg/mL | > 150 µg/mL | – | 83.7 µg/mL | 108 µg/mL | > 150 µg/mL | > 150 µg/mL | 80.6 µg/mL | > 150 µg/mL | > 150 µg/mL | 64.6 µg/mL | – | > 150 µg/mL | > 150 µg/mL | 95.8 µg/mL
N#CCCN(C1=NN(C(=O)CC(=O)Nc2ccc(Cl)cc2)C(c2ccccc2)C1)c1ccc(Cl)cc1 (stereo not drawn) | > 100 µM | > 100 µM | – | > 100 µM | > 100 µM | > 100 µM | > 100 µM | > 100 µM | – | – | – | – | – | – | – | – | – | – | – | –
O=c1c2ccccc2nc2n1CCc1c-2[nH]c2cc3c(cc12)OCO3 | > 25 µM | > 25 µM | > 25 µM | 21.9 µM | – | > 25 µM | 7.69 µM | > 25 µM | – | – | – | > 25 µM | – | – | – | 1.08 µM | – | – | – | –
Cn1cnc([N+](=O)[O-])c1Sc1nc2ccccc2o1 | 24.4 µM | 19.4 µM | > 81.2 µM | 30.9 µM | 52.9 µM | 18.6 µM | 29.3 µM | > 94.4 µM | – | – | – | – | – | – | – | – | – | – | – | –
COC(=O)C(=NNc1ccccc1[N+](=O)[O-])C(=O)OC | – | > 100 µM | > 100 µM | > 100 µM | > 100 µM | > 100 µM | > 100 µM | > 100 µM | – | – | – | – | – | – | – | – | – | – | – | –
Cn1nc(-c2ccccc2)c2c(/C=C/c3ccc(Cl)cc3)onc2c1=O | > 100 µM | – | – | > 100 µM | – | > 100 µM | 66 µM | – | – | – | – | – | – | – | – | – | – | – | – | –
CC12CC/C(=N/NC(N)=O)C3C1CCCC32 | > 100 µM | – | > 100 µM | > 100 µM | > 100 µM | > 100 µM | > 100 µM | > 100 µM | – | – | – | – | – | – | – | – | – | – | – | –
CN(C)CCCOc1ccc(/C=C2/CCC/C(=C/c3ccc(OCCCN(C)C)cc3)C2=O)cc1 | 6.07 µM | 0.644 µM | 4.18 µM | 4.74 µM | 3.69 µM | 4 µM | 2.59 µM | 4.49 µM | – | – | – | – | – | – | – | – | – | – | – | –
O=C(Nc1ccn(C2CC(I)C(COC(c3ccccc3)(c3ccccc3)c3ccccc3)O2)c(=O)n1)c1ccccc1 (stereo not drawn) | 13.8 µM | > 21.5 µM | 21.5 µM | 21.5 µM | – | 16.2 µM | 15.5 µM | 21.2 µM | – | – | – | 15.7 µM | – | – | – | – | – | – | 67 µM | –
N.N.N.N.N.N#Cc1nn[n-]n1.[Cl-].[Co+3] | > 100 µM | > 100 µM | > 100 µM | > 100 µM | > 100 µM | > 100 µM | > 100 µM | > 100 µM | > 100 µM | > 100 µM | – | – | > 100 µM | > 100 µM | > 100 µM | > 100 µM | > 100 µM | – | – | > 100 µM
COC(=O)C(=O)C(C#N)c1cccc(Cl)c1 (stereo not drawn) | > 100 µM | > 100 µM | > 100 µM | > 100 µM | > 100 µM | > 100 µM | > 100 µM | > 100 µM | – | – | – | – | – | – | – | – | – | – | – | –
Cc1cc2nc3c(=O)[nH]c(=O)nc-3n(CC(O)C(O)C(O)CO)c2cc1N (stereo not drawn) | > 100 µM | – | > 100 µM | > 100 µM | > 100 µM | > 100 µM | > 100 µM | – | – | – | – | – | – | – | – | – | – | – | – | –
CC12CCCC(C#N)(C1)OC2=O (stereo not drawn) | > 100 µM | > 100 µM | > 100 µM | > 100 µM | > 100 µM | > 100 µM | > 100 µM | > 100 µM | – | – | – | – | – | – | – | – | – | – | – | –
COc1cc(-c2cc(-c3cccs3)c(C#N)c(N3CCOCC3)n2)cc(OC)c1OC | – | > 100 µM | > 100 µM | > 100 µM | > 100 µM | 97.2 µM | 7.94 µM | > 100 µM | – | > 100 µM | > 47.9 µM | > 100 µM | > 50.3 µM | > 76.1 µM | 3.83 µM | 1.82 µM | > 58.7 µM | 8.22 µM | > 100 µM | 8.46 µM
COc1ccc(/C(=C/c2ccc3ccccc3c2)c2nn[nH]n2)cc1OC | > 100 µM | > 100 µM | > 100 µM | > 100 µM | > 100 µM | > 100 µM | > 100 µM | > 100 µM | 1.9 µM | 6.08 µM | – | – | 3.63 µM | 7.84 µM | 8.07 µM | 5.72 µM | 2.33 µM | 10.9 µM | > 100 µM | 4.36 µM
CCOC(=O)C1=C(C)NC(C)=C(C(=O)OCCNC(=O)c2ccc(N=[N+]=[N-])cc2)C1c1ccccc1C(F)(F)F (stereo not drawn) | 21.5 µM | 21.5 µM | 21.5 µM | 21.5 µM | – | 21.5 µM | 21.5 µM | > 21.5 µM | – | – | – | 20.5 µM | – | – | – | – | – | – | 68.2 µM | –
O=C(O)CCC(=O)Oc1ccc(O)c2c1CCCC2=O | > 100 µM | > 100 µM | > 100 µM | > 100 µM | > 100 µM | > 100 µM | > 100 µM | > 100 µM | – | – | – | – | – | – | – | – | – | – | – | –
CC(=O)n1nnc2ccc([N+](=O)[O-])cc21 | > 100 µM | > 100 µM | > 100 µM | > 100 µM | > 100 µM | > 100 µM | > 100 µM | > 100 µM | – | – | – | – | – | – | – | – | – | – | – | –
